18 molecules from patent US20230406831A1, “COMPOUNDS AND METHODS OF INHIBITING BACTERIAL CHAPERONIN SYSTEMS” (THE TRUSTEES OF INDIANA UNIVERSITY, priority 2020, published 2023) can be followed below.

One experiment deals with T1, native MDH (Sus scrofa, UniProt P00346).
T1 construct: soluble pig heart MDH from Roche, product #10127248001; purchased Roche 10127248001; host or cells: pig heart
T1 sequence (P00346 25-338): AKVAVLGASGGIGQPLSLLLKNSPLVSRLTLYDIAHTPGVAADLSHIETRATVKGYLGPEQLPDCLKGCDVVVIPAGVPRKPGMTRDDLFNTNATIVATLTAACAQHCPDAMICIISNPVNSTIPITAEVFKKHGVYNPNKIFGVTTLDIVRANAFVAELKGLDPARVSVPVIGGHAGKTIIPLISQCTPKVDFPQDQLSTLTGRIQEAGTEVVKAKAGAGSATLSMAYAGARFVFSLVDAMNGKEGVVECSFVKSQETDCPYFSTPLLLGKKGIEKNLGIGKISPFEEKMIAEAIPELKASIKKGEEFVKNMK
As to the kind of experiment: Native MDH enzymatic activity counter-screen. Format: biochemical, pig. To be noted: compounds added after refolding and EDTA quench, read-out: Biochemical Assay IC50 Native MDH Activity. The protocol: Counter-screening compounds for inhibition of native MDH enzymatic activity.
Reagent Preparations & Assay Protocol: This assay was performed as described above for the GroEL/ES-dMDH refolding assay; however, the assay protocol differed in the sequence of compound addition to the assay plates. The refolding reactions were allowed to proceed for 45 min at 37° C. in the absence of test compounds (complete refolding of MDH occurs), then quenched with the EDTA stock. Compounds were then pin-transferred into the plates after the EDTA quenching step; thus, compounds effects are only possible by inhibiting the fully-refolded MDH reporter substrate. Next enzymatic activity of the refolded MDH was initiated by addition of 20 μL MDH enzymatic assay stock (20 mM sodium mesoxalate and 2.4 mM NADH in reaction buffer, 50 mM Tris pH 7.4, 50 mM KCl, 1 mM DTT), and followed by measuring the NADH absorbance in each well at 340 nm using a Molecular Devices SpectraMax Plus384 microplate reader
A340 nm measurements were recorded at 0.5 minutes (start point) and at successive time points until the amount of NADH consumed reached ˜90% (end point, generally between 20-35 minutes). Compounds were tested in 8-point, 3-fold dilution series (62.5 μM to 29 nM during the reporter reaction) in clear, flat-bottom 384-well microtiter plates.
DMSO was used as a negative control, and previously discovered native MDH inhibitors were used as positive controls. IC50 values for the test compounds were obtained by plotting the % inhibition results in GraphPad Prism 6 and analyzing by non-linear regression using the log (inhibitor) vs. response (variable slope) equation. Results presented represent the averages of IC50 values obtained from at least quadriplicate (duplicate of duplicate) replicates.

The target in a further experiment is T2, HSP60/10 (Homo sapiens, UniProt P10809).
T2 construct: octa-Histidine (His8) tag, TEV-cleavable (N, cleaved yes); made in house; host or cells: HSP60 in Rosetta 2 (DE3) E. coli; HSP10 in Rosetta 2 (DE3) pLysS
As to the kind of experiment: HSP60/10-mediated dMDH refolding assay. The format is biochemical. As to conditions: 37° C., 1 mM ATP, read-out: Biochemical Assay IC50 HSP60/10-dMDH Refolding. On the procedure: Evaluation of compounds ability to inhibit GroEL/ES and HSP60/10-mediated dMDH refolding assays.
Reagent preparation: For these assays, four primary reagent stocks were prepared: 1) GroEL/ES-dMDH or HSP60/10-dMDH binary complex stock; 2) ATP initiation stock; 3) EDTA quench stock; 4) MDH enzymatic assay stock. Denatured MDH (dMDH) was prepared by 2-fold dilution of MDH (5 mg/ml, soluble pig heart MDH from Roche, product #10127248001) with denaturant buffer (7 M guanidine-HCl, 200 mM Tris, pH 7.4, and 50 mM DTT). MDH was completely denatured by incubating at room temperature for 45 min. The binary complex solutions were prepared by slowly adding the dMDH stock to a stirring stock with GroEL (or HSP60) in folding buffer (50 mM Tris-HCl, pH 7.4, 50 mM KCl, 10 mM MglC2, and 1 mM DTT), followed by addition of GroES (or HSP10). The binary complex stocks were prepared immediately prior to dispensing into the assay plates and had final protein concentrations of 83.3 nM GroEL (Mr 800 kDa) or HSP60 (Mr 400 kDa), 100 nM GroES or HSP10 (Mr 70 kDa), and 20 nM dMDH in folding buffer. For the ATP initiation stock, ATP solid was diluted into folding buffer to a final concentration of 2.5 mM. Quench solution contained 600 mM EDTA (pH 8.0). The MDH enzymatic assay stock consisted of 20 mM sodium mesoxalate and 2.4 mM NADH in reaction buffer (50 mM Tris-HCl, pH 7.4, 50 mM KC1, and 1 mM DTT).
Assay Protocol: First, 30 μL aliquots of the GroEL/ES-dMDH or HSP60/10-dMDH binary complex stocks were dispensed into clear, 384-well polystyrene plates. Next, 0.5 μL of the compound stocks (10 mM to 4.6 μM, 3-fold dilutions series in DMSO) were added by pin-transfer (V&P Scientific). The chaperonin-mediated refolding cycles were initiated by addition of 20 IA of ATP stock (reagent concentrations during refolding cycle: 50 nM GroEL or HSP60, 60 nM GroES or HSP10, 12 nM dMDH, 1 mM ATP, and compounds of 100 μM to 46 nM, 3-fold dilution series). The refolding reactions were incubated at 37° C. The incubation time was determined from refolding time-course control experiments until they reached ˜90% completion of refolding cycle — generally ˜20-40 min for GroEL/ES, and ˜40-60 min for HSP60/10). Next, the assay was quenched by addition of 10 μL of the EDTA to final concentration of 100 mM. […] A340 nm measurements were recorded at 0.5 minutes (start point) and at successive time points until the amount of NADH consumed reached ˜90% (end point, generally between 20-35 minutes). The differences between the start and end point A340 values were used to calculate the % inhibition of the GroEL/ES or HSP60/10 machinery by the compounds. IC50 values for the test compounds were obtained by plotting the % inhibition results in GraphPad Prism 6 and analyzing by non-linear regression using the log (inhibitor) vs. response (variable slope) equation. Results presented represent the averages of IC50 values obtained from at least quadriplicate (duplicate of duplicate) replicates. For results, see Tables 1, 2, and 3.

Where two headings read alike, the source gives them in different places. Bounds are passed on as bounds.

T2 sequence (P10809 27-573): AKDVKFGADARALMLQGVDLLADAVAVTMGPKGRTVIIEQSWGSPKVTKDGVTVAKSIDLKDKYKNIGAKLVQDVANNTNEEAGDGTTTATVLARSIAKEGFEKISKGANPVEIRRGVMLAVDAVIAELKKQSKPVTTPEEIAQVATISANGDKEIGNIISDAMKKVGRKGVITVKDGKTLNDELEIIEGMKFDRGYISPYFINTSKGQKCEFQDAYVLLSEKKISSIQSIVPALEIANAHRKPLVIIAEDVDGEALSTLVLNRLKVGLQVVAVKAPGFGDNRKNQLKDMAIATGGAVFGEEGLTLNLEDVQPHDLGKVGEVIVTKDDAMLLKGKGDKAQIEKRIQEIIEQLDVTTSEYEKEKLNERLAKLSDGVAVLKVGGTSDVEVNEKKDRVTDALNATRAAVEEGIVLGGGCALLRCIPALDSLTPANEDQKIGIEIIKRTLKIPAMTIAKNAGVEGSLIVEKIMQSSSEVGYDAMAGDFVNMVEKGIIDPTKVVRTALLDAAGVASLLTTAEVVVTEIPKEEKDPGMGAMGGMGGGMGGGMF

As to `Cc1cc(C(C#N)c2ccc(Cl)cc2)c(Cl)cc1NC(=O)c1cc(I)cc(I)c1O` (stereo not drawn) [Closantel, reference compound], the IC50 on native MDH (Table 1) is 6 µM; at HSP60/10 (Table 1) it was 3 µM.

`O=C(Nc1ccc(Sc2nc3ccccc3s2)c(Cl)c1)c1cc(Br)cc(Br)c1O` [Compound 1, reference compound]: the IC50 is 6.3 µM at native MDH (Table 1) and 3.7 µM at HSP60/10 (Table 1).

As for `COc1c(Br)cc(Br)cc1C(=O)Nc1cc(Cl)c(C(C#N)c2ccc(Cl)cc2)cc1C` (stereo not drawn) [Compound 45, 3,5-dibromo-N-(5-chloro-4-((4-chlorophenyl)(cyano)methyl)-2-methylphenyl)-2-methoxybenzamide], the IC50 at native MDH (Table 2) was greater than 63 µM; on HSP60/10 (Table 2), greater than 100 µM.

For the molecule `Cc1cc(C(C#N)c2ccc(Cl)cc2)c(Cl)cc1NC(=O)c1cc(Br)cc(Br)c1O` (stereo not drawn) [Compound 46, 3,5-dibromo-N-(5-chloro-4-((4-chlorophenyl)(cyano)methyl)-2-methylphenyl)-2-hydroxybenzamide], the figures for the IC50 at native MDH (Table 2) and at HSP60/10 (Table 2) were 2.3 µM and 2.4 µM, respectively.

`COc1c(Br)cccc1C(=O)Nc1cc(Cl)c(C(C#N)c2ccc(Cl)cc2)cc1C` (stereo not drawn) [Compound 47, 3-bromo-N-(5-chloro-4-((4-chlorophenyl)(cyano)methyl)-2-methylphenyl)-2-methoxybenzamide]: the IC50 on native MDH (Table 2) is greater than 63 µM; on HSP60/10 (Table 2) it was greater than 100 µM.

As to `Cc1cc(C(C#N)c2ccc(Cl)cc2)c(Cl)cc1NC(=O)c1cccc(Br)c1O` (stereo not drawn) [Compound 48, 3-bromo-N-(5-chloro-4-((4-chlorophenyl)(cyano)methyl)-2-methylphenyl)-2-hydroxybenzamide], the IC50 on native MDH (Table 2) came to 48 µM; at HSP60/10 (Table 2) it was 7.7 µM.

In the case of `COc1ccc(Br)cc1C(=O)Nc1cc(Cl)c(C(C#N)c2ccc(Cl)cc2)cc1C` (stereo not drawn) [Compound 49, 5-bromo-N-(5-chloro-4-((4-chlorophenyl)(cyano)methyl)-2-methylphenyl)-2-methoxybenzamide], the results for the IC50 at native MDH (Table 2) and at HSP60/10 (Table 2) were greater than 63 µM and greater than 100 µM, respectively.

Consider `Cc1cc(C(C#N)c2ccc(Cl)cc2)c(Cl)cc1NC(=O)c1cc(Br)ccc1O` (stereo not drawn) [Compound 50, 5-bromo-N-(5-chloro-4-((4-chlorophenyl)(cyano)methyl)-2-methylphenyl)-2-hydroxybenzamide], for which the IC50 on native MDH (Table 2) was found to be 55 µM; at HSP60/10 (Table 2) it was 20 µM.

In the case of `COc1c(Cl)cc(Cl)cc1C(=O)Nc1cc(Cl)c(C(C#N)c2ccc(Cl)cc2)cc1C` (stereo not drawn) [Compound 51, 3,5-dichloro-N-(5-chloro-4-((4-chlorophenyl)(cyano)methyl)-2-methylphenyl)-2-methoxybenzamide], the IC50 was greater than 63 µM at native MDH (Table 2) and 86 µM on HSP60/10 (Table 2).

Regarding `Cc1cc(C(C#N)c2ccc(Cl)cc2)c(Cl)cc1NC(=O)c1cc(Cl)cc(Cl)c1O` (stereo not drawn) [Compound 52, 3,5-dichloro-N-(5-chloro-4-((4-chlorophenyl)(cyano)methyl)-2-methylphenyl)-2-hydroxybenzamide], the IC50 on native MDH (Table 2) is 5.5 µM; on HSP60/10 (Table 2), 5.2 µM.

Turning to `COc1c(Cl)cccc1C(=O)Nc1cc(Cl)c(C(C#N)c2ccc(Cl)cc2)cc1C` (stereo not drawn) [Compound 53, 3-chloro-N-(5-chloro-4-((4-chlorophenyl)(cyano)methyl)-2-methylphenyl)-2-methoxybenzamide], the IC50 at native MDH (Table 2) is greater than 63 µM; at HSP60/10 (Table 2), greater than 100 µM.

With `Cc1cc(C(C#N)c2ccc(Cl)cc2)c(Cl)cc1NC(=O)c1cccc(Cl)c1O` (stereo not drawn) [Compound 54, 3-chloro-N-(5-chloro-4-((4-chlorophenyl)(cyano)methyl)-2-methylphenyl)-2-hydroxybenzamide], the IC50 at native MDH (Table 2) worked out at 57 µM; at HSP60/10 (Table 2) it was 6.4 µM.

As to `COc1cc(Cl)ccc1C(=O)Nc1cc(Cl)c(C(C#N)c2ccc(Cl)cc2)cc1C` (stereo not drawn) [Compound 55, 4-chloro-N-(5-chloro-4-((4-chlorophenyl)(cyano)methyl)-2-methylphenyl)-2-methoxybenzamide], the IC50 was greater than 63 µM on native MDH (Table 2) and greater than 100 µM at HSP60/10 (Table 2).

As for `Cc1cc(C(C#N)c2ccc(Cl)cc2)c(Cl)cc1NC(=O)c1ccc(Cl)cc1O` (stereo not drawn) [Compound 56, 4-chloro-N-(5-chloro-4-((4-chlorophenyl)(cyano)methyl)-2-methylphenyl)-2-hydroxybenzamide], the IC50 on native MDH (Table 2) came to 59 µM; on HSP60/10 (Table 2) it was 17 µM.

Consider `COc1ccc(Cl)cc1C(=O)Nc1cc(Cl)c(C(C#N)c2ccc(Cl)cc2)cc1C` (stereo not drawn) [Compound 57, 5-chloro-N-(5-chloro-4-((4-chlorophenyl)(cyano)methyl)-2-methylphenyl)-2-methoxybenzamide], for which the IC50 is greater than 63 µM at native MDH (Table 2), greater than 63 µM on native MDH (Table 3), greater than 100 µM on HSP60/10 (Table 2) and greater than 100 µM on HSP60/10 (Table 3).

As to `Cc1cc(C(C#N)c2ccc(Cl)cc2)c(Cl)cc1NC(=O)c1cc(Cl)ccc1O` (stereo not drawn) [Compound 58, 5-chloro-N-(5-chloro-4-((4-chlorophenyl)(cyano)methyl)-2-methylphenyl)-2-hydroxybenzamide], the IC50 on native MDH (Table 2) is greater than 63 µM; on native MDH (Table 3) it was greater than 63 µM; at HSP60/10 (Table 2), 40 µM.

As for `COc1ccc(C)cc1C(=O)Nc1cc(Cl)c(C(C#N)c2ccc(Cl)cc2)cc1C` (stereo not drawn) [Compound 59, N-(5-chloro-4-((4-chlorophenyl)(cyano)methyl)-2-methylphenyl)-2-methoxy-5-methylbenzamide], the IC50 at native MDH (Table 2) is greater than 63 µM; at HSP60/10 (Table 2), greater than 100 µM.

On to `Cc1ccc(O)c(C(=O)Nc2cc(Cl)c(C(C#N)c3ccc(Cl)cc3)cc2C)c1` (stereo not drawn) [Compound 60, N-(5-chloro-4-((4-chlorophenyl)(cyano)methyl)-2-methylphenyl)-2-hydroxy-5-methylbenzamide], for which the IC50 on native MDH (Table 2) was greater than 63 µM; at HSP60/10 (Table 2), 85 µM.
